For one test, the system named is SARS-COV-2. Nature of the test: microbe, parasite or virus in culture. It counts as cell-based. Conditions: Severe acute respiratory syndrome coronavirus 2, 72 h, read-out: ID50 (Antiviral Data).
For the next test, the target named is SARS-COV-2 3CLpro (Severe acute respiratory syndrome coronavirus 2, UniProt P0DTD1). Briefly: biochemical.

In patent publication US12466792B2 (priority 2021, dated 2025) one finds IC50 data, which are given here for 10 molecules.

Structures are written as SMILES.

Consider `CC(C)C[C@H](NC(=O)OCc1ccncc1)C(=O)N[C@H](C#N)C[C@@H]1CCCNC1=O`, for which the results for the IC50 in the test on SARS-COV-2 and at SARS-COV-2 3CLpro were more than 100 µM and 0.1 to 999 nM, respectively.
For `CC(C)C[C@@H](C(=O)N[C@H](C#N)C[C@@H]1CCNC1=O)N(C)C(=O)[C@@H](NC(=O)C(F)(F)F)C(C)(C)C` the same measures were 10.1 to 100 µM and 0.1 to 999 nM.
In the same order, the values of `COc1cccc2[nH]c(C(=O)N(C)[C@@H](CC(C)C)C(=O)N[C@H](C#N)C[C@@H]3CCNC3=O)cc12` are more than 100 µM and 0.1 to 999 nM.
In the same order, the values of `CC(C)C[C@H](NC(=O)OCc1ccccc1)C(=O)N[C@H](C#N)C[C@@H]1CCCNC1=O` are 1 to 10 µM and 0.1 to 999 nM.
`C=CCN(C(=O)c1cc2c(OC)cccc2[nH]1)[C@@H](CC(C)C)C(=O)N[C@H](C#N)C[C@@H]1CCNC1=O`: the IC50 is more than 100 µM with SARS-COV-2 and 0.1 to 999 nM at SARS-COV-2 3CLpro.
In the same order, the values of `COc1cccc2[nH]c(C(=O)N[C@@H](CC(C)C)C(=O)N[C@H](C#N)C[C@@H]3CCCNC3=O)cc12` are 10.1 to 100 µM and 1000 to 10000 nM.
For the molecule `CC(C)C[C@H](NC(=O)OCc1ccncc1)C(=O)N[C@H](C#N)C[C@@H]1CCNC1=O`, the IC50 is more than 100 µM in the test on SARS-COV-2 and 0.1 to 999 nM against SARS-COV-2 3CLpro.
In the same order, the values of `CC(C)C[C@@H](C(=O)N[C@H](C#N)C[C@@H]1CCNC1=O)N(C)C(=O)[C@@H](NC(=O)C(F)(F)F)C(C)C` are 10.1 to 100 µM and 1000 to 10000 nM.
For `CC(C)C[C@H](NC(=O)OCc1ccccn1)C(=O)N[C@H](C#N)C[C@@H]1CCCNC1=O` the same measures were more than 100 µM and 0.1 to 999 nM.
In the same order, the values of `CC(C)C[C@H](NC(=O)OCc1cccnc1)C(=O)N[C@H](C#N)C[C@@H]1CCCNC1=O` are more than 100 µM and 0.1 to 999 nM.
